Test results as given in US11873298B2, “Compounds and uses thereof” (JANSSEN PHARMACEUTICA NV, priority 2017, dated 2024).

Columns and labels:
SCD1 = biological target: T1, SCD1 (Homo sapiens, UniProt O00767); test: Growth inhibition of humanized yeast strain expressing SCD1 as sole desaturase; format: cell-based
T1 construct: host or cells: S. cerevisiae ole1Δ strain (W303 pdr1Δ pdr3Δ background), plasmid pRS316 with TDH3 promoter and CYC1 terminator
T1 sequence (O00767 1-359): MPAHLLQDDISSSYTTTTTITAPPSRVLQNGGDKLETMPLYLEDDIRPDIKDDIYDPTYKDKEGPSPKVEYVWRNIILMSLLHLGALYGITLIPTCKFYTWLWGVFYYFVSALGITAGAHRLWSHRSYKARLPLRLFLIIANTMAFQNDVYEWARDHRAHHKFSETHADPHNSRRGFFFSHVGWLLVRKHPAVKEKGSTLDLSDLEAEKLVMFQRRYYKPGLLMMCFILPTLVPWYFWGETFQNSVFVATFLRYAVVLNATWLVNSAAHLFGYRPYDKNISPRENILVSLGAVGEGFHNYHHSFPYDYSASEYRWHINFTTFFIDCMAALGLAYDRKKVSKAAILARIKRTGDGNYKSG
Method in brief: (§1)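 Plasmid-complemented ole1Δ yeast, drug-pump deleted (pdr1Δ pdr3Δ), depend solely on the introduced Ole1, SCD1 or SCD5 desaturase. Compounds are added from DMSO to cells in uracil-free galactose medium, 2× density 0.02, and OD600 is read after 24 h or 40 h respectively.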

SCD5 = biological target: T2, SCD5 (Homo sapiens, UniProt Q86SK9); test: Growth inhibition of humanized yeast strain expressing SCD5 as sole desaturase; format: cell-based
T2 construct: host or cells: S. cerevisiae ole1Δ strain (W303 pdr1Δ pdr3Δ background), plasmid pRS316 with TDH3 promoter and CYC1 terminator
T2 sequence (Q86SK9 1-330): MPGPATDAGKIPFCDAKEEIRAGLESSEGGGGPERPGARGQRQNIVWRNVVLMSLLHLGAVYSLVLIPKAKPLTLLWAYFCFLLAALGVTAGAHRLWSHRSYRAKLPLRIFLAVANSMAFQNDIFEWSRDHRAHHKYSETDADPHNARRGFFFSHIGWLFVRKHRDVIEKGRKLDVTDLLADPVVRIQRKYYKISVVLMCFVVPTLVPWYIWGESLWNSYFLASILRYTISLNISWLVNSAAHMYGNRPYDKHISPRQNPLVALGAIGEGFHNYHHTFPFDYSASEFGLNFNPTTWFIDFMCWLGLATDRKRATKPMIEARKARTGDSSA
Method in brief: as §1

[1] = growth inhibition of humanized yeast strain expressing human SCD1
[2] = growth inhibition of humanized yeast strain expressing human SCD5

Compound | IC50 (SCD1; humanized yeast strain, 40 h) [µM] | IC50 (SCD5; humanized yeast strain, 40 h) [µM] | also measured
CC1(OC(=O)N2CCC(c3noc(-c4ccnc(N5CCC(F)(F)C5)c4)n3)CC2)CC1 [Compound 1171] | 1.14 | 0.0311 | 
COC(=O)N1CCC(c2noc(-c3ccccc3N3CCOCC3)n2)CC1 [Compound 1169] | 15.4 | > 45 | 
Cc1nn(C)c2cc(-c3noc(C4CCN(C(=O)[C@@H]5CC(=O)N(c6cccc(C#N)c6)C5)CC4(F)F)n3)ccc12 (stereo partly shown) [Compound 648] |  |  | IC50 (SCD1; [1]): > 45 µM; IC50 (SCD5; [2]): > 45 µM
CC(C)n1ncc2ccc(-c3noc(N4CCN(C(=O)CC5CC5)CC4)n3)cc21 [Compound 869] | > 45 | 1.64 | 
CC(C)C(=O)N1CC[C@H](c2noc(-c3ccc4cnn(C5COC5)c4c3)n2)C[C@H]1C [Compound 1058] | > 45 | 0.00367 | 
CC(C)(C)OC(=O)N1CCC(c2noc(-c3cccc(C4CCOC4)n3)n2)CC1 (stereo not shown) [Compound 1189] | > 45 | 7.72 | 
CC(=O)N1CC(n2cc3ccc(-c4nc(N5CCN(C(=O)OC(C)(C)C)CC5)no4)cc3n2)C1 [Compound 914] | > 45 | 6.17 | 
CC(=O)N1CC(n2ncc3ccc(-c4nc(C5CCN(C(=O)OC(C)(C)C)CC5)no4)cc32)C1 [Compound 861] | 15 | 0.01 | 
COC(=O)N1CCC(c2noc(-c3ccc4cn(C5CCN(C)C5=O)nc4c3)n2)CC1 (stereo not shown) [Compound 1102] | > 45 | > 45 | 
COC(=O)N1CCC(c2nc(-c3ccc4cnn(C5CS(=O)(=O)C5)c4c3)no2)CC1 [Compound 1014] | > 45 | 4.82 | 
O=C(N1CCC(c2noc(-c3ccnc(C4CCOC4)c3)n2)CC1)C1(F)CCC1 (stereo not shown) [Compound 1097] | > 45 | 0.02 | 
O=C(C1CCC1)N1CCC(c2noc(-c3cccc(N4CCOCC4)n3)n2)CC1 [Compound 1103] | > 45 | 23.4 | 
CC(C)(C)OC(=O)N1CCC(c2nc(-c3ccc4cnn(C5COC5)c4c3)ns2)CC1 [Compound 621] |  |  | IC50 (SCD1; [1]): > 45 µM; IC50 (SCD5; [2]): 0.042 µM
CCC(=O)N1CCN(c2nc(-c3ccc4cnn(C5CN(C(=O)CC)C5)c4c3)no2)CC1 [Compound 930] | > 45 | 0.2 | 
CC(C)(C)OC(=O)N1CCN(c2nc(-c3cccc(C4CCOC4)c3)no2)CC1 (stereo not shown) [Compound 829] | > 45 | 2.2 | 
COC(=O)N1CCC(c2noc(-c3cc(C#N)c4cnn(C5COC5)c4c3)n2)CC1 [Compound 1085] | > 45 | 0.532 | 
CC(C)(C)OC(=O)N1CCC(c2nc(-c3ccn4cnc(I)c4c3)no2)CC1 [Compound 858] | > 45 | 0.262 | 
C=C(C)c1nccn2cc(-c3nc(C4CCN(C(=O)OC(C)(C)C)CC4)no3)cc12 [Compound 888] | > 45 | 0.01 | 
CNC(=O)Cn1ncc2ccc(-c3noc(C4CCN(C(=O)OC(C)(C)C)CC4)n3)cc21 [Compound 644] |  |  | IC50 (SCD1; [1]): > 45 µM; IC50 (SCD5; [2]): > 45 µM

Compound | IC50 (SCD1; humanized yeast strain, 40 h) [µM] | IC50 (SCD5; humanized yeast strain, 40 h) [µM] | also measured
Cc1nn(C)c2cc(-c3noc(C4CCN(C(=O)CNC(=O)c5cccc(F)c5)CC4(F)F)n3)ccc12 (stereo not shown) [Compound 602] |  |  | IC50 (SCD1; humanized yeast strain expressing SCD1): 15.9 µM; IC50 (SCD5; humanized yeast strain expressing SCD5): 2.74 µM
CC(C)n1ncc2ccc(-c3nc(C4CCN(C(=O)c5sccc5Cl)CC4)no3)cc21 [Compound 715] |  |  | IC50 (SCD1; [1]): > 45 µM; IC50 (SCD5; [2]): 0.048 µM
CC(C)(C)OC(=O)N1CCC(c2ccc(-c3ccc4cnn(C5COC5)c4c3)nn2)CC1 [Compound 1030] | > 45 | 11 | 
CC(C)(C)OC(=O)N[C@H]1CC[C@@H](c2nc(-c3ccc4cnn(C5COC5)c4c3)no2)CC1 [Compound 683] |  |  | IC50 (SCD1; [1]): > 45 µM; IC50 (SCD5; [2]): 10.1 µM
CC(C)(C)OC(=O)N1CCC(c2noc(-c3ccc4cnn(C5COC5)c4c3F)n2)CC1 [Compound 988] | > 45 | 0.024 | 
CC(C)(C)C(=O)N1CC2(CC(c3noc(-c4ccc5cnn(C6COC6)c5c4)n3)C2)C1 [Compound 1033] | > 45 | 3.91 | 
COC(=O)N1CCC(c2noc(-c3cc4c(cnn4C4COC4)cc3F)n2)CC1 [Compound 944] | > 45 | 2.22 | 
COC(=O)N1CCN(c2noc(-c3ccnc(OC(CO)CO)c3)n2)CC1 [Compound 1007] | > 45 | > 45 | 
CC(C)n1ncc2ccc(-c3noc(N4CCn5c(Cl)cnc5C4)n3)cc21 [Compound 805] | > 45 | 9.36 | 
CC(C)n1ncc2ccc(-c3nc(C4CCN(C(=O)c5ncccn5)CC4)no3)cc21 [Compound 716] |  |  | IC50 (SCD1; [1]): > 45 µM; IC50 (SCD5; [2]): > 45 µM
CC(C)C(=O)N1CCC(c2noc(-c3ccnc(C4CCOC4)c3)n2)CC1 (stereo not shown) [Compound 1090] | > 45 | 0.54 | 
O=C(OC1CC1)N1CCC(c2nc(-c3ccc4cnn(C5COC5)c4c3)no2)CC1 [Compound 618] |  |  | IC50 (SCD1; [1]): > 45 µM; IC50 (SCD5; [2]): 0.101 µM
O=C(C1CCC1)N1CCC(c2noc(-c3ccnc(C4CCOC4)c3)n2)CC1 (stereo not shown) [Compound 1180] | > 45 | 0.06 | 
COC(=O)N1CCCC(c2noc(-c3ccc4cnn(C5COC5)c4c3)n2)CC1 (stereo not shown) [Compound 873] | > 45 | 41.3 | 
CNC(=O)Cn1cc2ccc(-c3noc(C4CCN(C(=O)OC(C)(C)C)CC4)n3)cc2n1 [Compound 678] |  |  | IC50 (SCD1; [1]): > 45 µM; IC50 (SCD5; [2]): 3.87 µM
O=C(N1CCC(c2noc(-c3ccc4cnn(C5COC5)c4c3)n2)CC1)C1(F)CCC1 [Compound 1029] | > 45 | 0.01 | 
CC1(OC(=O)N2CCC(c3nc(-c4ccc5cnn(C6(C)COC6)c5c4)no3)CC2)CC1 [Compound 816] | > 45 | 7.19 | 
CC(C)(C)OC(=O)N1CCC(c2noc(-c3ccnc(OC4COC4)c3)n2)CC1 [Compound 982] | 0.01 | 0.327 | 
COC(=O)N1CCN(c2noc(-c3cccc(OC4COC4)c3)n2)CC1 [Compound 1013] | > 45 | 0.367 | 
